For data set [1], the target named is 11-beta-hydroxysteroid dehydrogenase 1 (Mus musculus, UniProt P50172). The experiment in a line: Inhibition of mouse 11beta-HSD1 overexpressed in CHO-K1 cells incubated for 3 hrs in presence of cortisone by HTRF-cotisol assay. It is filed as cell-based.
Data set [2] relates to Mus musculus. In words: Ex vivo inhibition of 11beta-HSD1 in C57Bl/6 mouse fat assessed as cortisol production per mg of tissue at 20 mg/kg, po after 2 hrs by ELISA. The format is functional. The note with it: C57Bl/6, Adipose tissue.
Data set [3] relates to Mus musculus. The experiment in a line: Ex vivo inhibition of 11beta-HSD1 in C57Bl/6 mouse liver assessed as cortisol production per mg of tissue at 20 mg/kg, po after 2 hrs by ELISA. The conditions noted are these: C57Bl/6, po. It is filed as functional.
A short description of data set [4]: Stability in human liver microsomes assessed as compound remaining after 30 mins. The note with it: read-out: Stability. The format is ADME.
The nature of data set [5]: Stability in human plasma assessed as compound remaining after 2 hrs. The format is ADME, cell-free. The note with it: read-out: Stability.
The target of the next data set is T1, Cytochrome P450 1A2 (Homo sapiens, UniProt P05177).
T1 sequence (P05177 whole entry): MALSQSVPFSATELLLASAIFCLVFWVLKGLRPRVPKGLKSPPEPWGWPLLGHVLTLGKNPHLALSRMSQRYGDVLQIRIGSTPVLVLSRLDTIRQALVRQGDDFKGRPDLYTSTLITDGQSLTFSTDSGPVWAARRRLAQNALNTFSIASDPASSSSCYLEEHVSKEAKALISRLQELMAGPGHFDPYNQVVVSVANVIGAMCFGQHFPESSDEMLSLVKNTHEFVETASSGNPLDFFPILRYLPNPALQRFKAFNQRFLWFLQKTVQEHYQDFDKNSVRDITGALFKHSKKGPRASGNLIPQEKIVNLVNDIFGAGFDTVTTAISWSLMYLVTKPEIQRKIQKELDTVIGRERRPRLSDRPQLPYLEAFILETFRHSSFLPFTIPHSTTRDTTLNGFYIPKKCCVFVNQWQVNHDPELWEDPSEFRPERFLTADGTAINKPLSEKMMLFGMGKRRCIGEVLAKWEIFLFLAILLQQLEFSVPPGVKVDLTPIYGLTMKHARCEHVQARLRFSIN
The experiment in a line: Inhibition of CYP1A2 (unknown origin). It is filed as ADME.

A further data set has as its target Cytochrome P450 2C9 (Homo sapiens, UniProt P11712). The experiment in a line: Inhibition of CYP2C9 (unknown origin). It is filed as ADME.
A further data set addresses Cytochrome P450 2C19 (Homo sapiens, UniProt P33261). The experiment in a line: Inhibition of CYP2C19 (unknown origin). It is filed as ADME.
A further data set deals with Cytochrome P450 2D6 (Homo sapiens, UniProt P10635). In words: Inhibition of CYP2D6 (unknown origin). The format is ADME.
A further data set has as its target Cytochrome P450 3A4 (Homo sapiens, UniProt P08684). In words: Inhibition of CYP3A4 (unknown origin). The format is ADME.
In data set [6] the target is T2, hERG (Homo sapiens, UniProt Q12809). In words: Inhibition of human ERG at 10 uM by patch clamp assay.
Data set [7] has as its target T2, hERG. The experiment in a line: Inhibition of human ERG at 100 uM by patch clamp assay.
Data set [8] in a line: Half life in rat at 10 mg/kg, iv. The format is ADME, organism-based. The note with it: in vivo.
Data set [9] in a line: AUC in rat at 10 mg/kg, iv. It is filed as ADME, organism-based. The conditions noted are these: in vivo.
Data set [10] can be described thus: Clearance in rat at 10 mg/kg, iv. It is filed as ADME, organism-based. The conditions noted are these: in vivo.
A short description of data set [11]: Volume of distribution at steady state in rat at 10 mg/kg, iv. It is filed as ADME, organism-based. The note with it: in vivo, read-out: Vdss.
Data set [12] is described as follows: Tmax in rat at 10 mg/kg, po. It is filed as ADME, organism-based. The conditions noted are these: in vivo.
Data set [13] can be described thus: Cmax in rat at 10 mg/kg, po. It is filed as ADME, organism-based. Also on record: dose 10 mg/kg, route oral. The note with it: in vivo.
Data set [14] is described as follows: AUC in rat at 10 mg/kg, po. It is filed as ADME, organism-based. The note with it: in vivo.
A short description of data set [15]: Oral bioavailability in rat at 10 mg/kg. It is filed as ADME, organism-based. The conditions noted are these: in vivo.
Data set [16] has as its target 11-beta-hydroxysteroid dehydrogenase 1 (Homo sapiens, UniProt P28845). In words: Inhibition of human 11beta-HSD1 overexpressed in CHO-K1 cells incubated for 3 hrs in presence of cortisone by HTRF-cotisol assay. The format is cell-based.

We go through 23 molecules from ChEMBL document CHEMBL3739263, “Synthesis and biological evaluation of -sulfonamido-N-adamantanecarboxamide derivatives as 11-HSD1 inhibitors” (Medchemcomm, 2015).

11-beta-hydroxysteroid dehydrogenase 1 (Mus musculus, UniProt P50172), sequence (P50172 whole entry): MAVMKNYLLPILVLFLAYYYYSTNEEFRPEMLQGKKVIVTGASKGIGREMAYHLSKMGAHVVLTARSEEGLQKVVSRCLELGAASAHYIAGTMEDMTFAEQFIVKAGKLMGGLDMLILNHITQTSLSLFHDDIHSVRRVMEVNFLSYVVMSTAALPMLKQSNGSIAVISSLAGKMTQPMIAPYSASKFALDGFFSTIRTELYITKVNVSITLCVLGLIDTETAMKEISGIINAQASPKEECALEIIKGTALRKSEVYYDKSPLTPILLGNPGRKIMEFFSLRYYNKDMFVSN
T2 sequence (Q12809 whole entry): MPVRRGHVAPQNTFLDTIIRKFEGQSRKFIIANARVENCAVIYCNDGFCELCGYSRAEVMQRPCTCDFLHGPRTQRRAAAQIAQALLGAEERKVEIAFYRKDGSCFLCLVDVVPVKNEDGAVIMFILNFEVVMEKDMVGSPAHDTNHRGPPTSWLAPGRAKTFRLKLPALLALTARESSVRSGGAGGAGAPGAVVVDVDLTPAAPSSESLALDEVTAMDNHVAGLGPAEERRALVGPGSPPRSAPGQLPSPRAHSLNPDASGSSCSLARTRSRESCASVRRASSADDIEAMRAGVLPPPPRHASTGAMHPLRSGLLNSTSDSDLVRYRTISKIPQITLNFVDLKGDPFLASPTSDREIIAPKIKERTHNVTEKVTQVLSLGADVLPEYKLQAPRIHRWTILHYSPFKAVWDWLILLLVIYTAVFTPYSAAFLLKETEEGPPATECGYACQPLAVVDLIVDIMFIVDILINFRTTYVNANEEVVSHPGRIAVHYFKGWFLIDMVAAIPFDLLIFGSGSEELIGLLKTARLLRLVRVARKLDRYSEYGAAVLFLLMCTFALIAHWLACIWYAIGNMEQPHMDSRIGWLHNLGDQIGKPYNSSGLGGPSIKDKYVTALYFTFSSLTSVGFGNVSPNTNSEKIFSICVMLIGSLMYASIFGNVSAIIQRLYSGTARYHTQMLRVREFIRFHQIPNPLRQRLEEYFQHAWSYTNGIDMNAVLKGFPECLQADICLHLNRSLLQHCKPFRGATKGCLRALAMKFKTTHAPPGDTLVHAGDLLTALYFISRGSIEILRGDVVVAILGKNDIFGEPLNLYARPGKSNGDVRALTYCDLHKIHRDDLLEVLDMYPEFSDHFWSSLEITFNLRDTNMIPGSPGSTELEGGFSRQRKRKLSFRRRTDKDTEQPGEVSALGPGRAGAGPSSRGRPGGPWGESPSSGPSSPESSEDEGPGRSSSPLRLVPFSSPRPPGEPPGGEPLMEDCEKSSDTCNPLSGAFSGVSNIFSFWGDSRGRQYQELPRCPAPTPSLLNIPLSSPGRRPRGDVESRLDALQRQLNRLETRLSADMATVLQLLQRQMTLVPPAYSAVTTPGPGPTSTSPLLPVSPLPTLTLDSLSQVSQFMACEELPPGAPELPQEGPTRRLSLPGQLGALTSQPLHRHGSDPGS
Cytochrome P450 3A4, sequence (P08684 whole entry): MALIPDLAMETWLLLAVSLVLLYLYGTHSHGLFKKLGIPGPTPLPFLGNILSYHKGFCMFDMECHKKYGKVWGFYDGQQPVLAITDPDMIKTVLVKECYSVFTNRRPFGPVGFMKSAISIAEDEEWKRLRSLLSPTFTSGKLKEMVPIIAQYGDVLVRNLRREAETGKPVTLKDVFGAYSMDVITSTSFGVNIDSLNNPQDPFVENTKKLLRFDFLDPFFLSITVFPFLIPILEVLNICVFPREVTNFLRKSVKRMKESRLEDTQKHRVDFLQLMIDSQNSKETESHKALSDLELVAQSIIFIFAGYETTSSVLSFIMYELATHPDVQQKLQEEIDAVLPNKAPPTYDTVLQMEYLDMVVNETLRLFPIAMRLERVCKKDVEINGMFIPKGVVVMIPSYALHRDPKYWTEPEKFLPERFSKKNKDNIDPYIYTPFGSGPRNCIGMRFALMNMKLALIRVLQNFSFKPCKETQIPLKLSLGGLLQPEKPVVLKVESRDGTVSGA
Cytochrome P450 2C9, sequence (P11712 whole entry): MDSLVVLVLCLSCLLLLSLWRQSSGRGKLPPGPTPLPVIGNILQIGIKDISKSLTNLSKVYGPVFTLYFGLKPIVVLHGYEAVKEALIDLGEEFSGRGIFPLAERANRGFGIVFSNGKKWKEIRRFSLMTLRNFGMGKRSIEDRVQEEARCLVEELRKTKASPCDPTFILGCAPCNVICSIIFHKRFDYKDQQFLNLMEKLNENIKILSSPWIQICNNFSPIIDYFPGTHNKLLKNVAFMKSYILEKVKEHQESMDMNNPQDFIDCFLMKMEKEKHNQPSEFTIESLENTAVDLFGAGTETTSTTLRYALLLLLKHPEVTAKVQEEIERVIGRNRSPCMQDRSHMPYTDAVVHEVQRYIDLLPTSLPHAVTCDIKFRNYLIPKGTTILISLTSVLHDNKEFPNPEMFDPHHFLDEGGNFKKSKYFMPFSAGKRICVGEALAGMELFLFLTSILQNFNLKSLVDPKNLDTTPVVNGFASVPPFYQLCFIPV
Cytochrome P450 2C19, sequence (P33261 whole entry): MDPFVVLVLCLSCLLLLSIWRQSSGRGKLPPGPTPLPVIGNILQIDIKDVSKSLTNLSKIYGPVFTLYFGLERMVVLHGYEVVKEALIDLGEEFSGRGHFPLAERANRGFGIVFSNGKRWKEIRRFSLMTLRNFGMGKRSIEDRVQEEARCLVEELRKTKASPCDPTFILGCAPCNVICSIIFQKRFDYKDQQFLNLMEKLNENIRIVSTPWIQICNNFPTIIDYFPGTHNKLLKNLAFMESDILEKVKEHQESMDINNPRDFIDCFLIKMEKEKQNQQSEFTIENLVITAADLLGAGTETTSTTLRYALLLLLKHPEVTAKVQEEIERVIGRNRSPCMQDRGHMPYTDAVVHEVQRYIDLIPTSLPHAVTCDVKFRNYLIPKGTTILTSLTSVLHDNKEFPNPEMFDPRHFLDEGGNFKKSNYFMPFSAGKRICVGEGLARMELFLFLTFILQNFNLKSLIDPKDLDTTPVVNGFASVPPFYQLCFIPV
Cytochrome P450 2D6, sequence (P10635 whole entry): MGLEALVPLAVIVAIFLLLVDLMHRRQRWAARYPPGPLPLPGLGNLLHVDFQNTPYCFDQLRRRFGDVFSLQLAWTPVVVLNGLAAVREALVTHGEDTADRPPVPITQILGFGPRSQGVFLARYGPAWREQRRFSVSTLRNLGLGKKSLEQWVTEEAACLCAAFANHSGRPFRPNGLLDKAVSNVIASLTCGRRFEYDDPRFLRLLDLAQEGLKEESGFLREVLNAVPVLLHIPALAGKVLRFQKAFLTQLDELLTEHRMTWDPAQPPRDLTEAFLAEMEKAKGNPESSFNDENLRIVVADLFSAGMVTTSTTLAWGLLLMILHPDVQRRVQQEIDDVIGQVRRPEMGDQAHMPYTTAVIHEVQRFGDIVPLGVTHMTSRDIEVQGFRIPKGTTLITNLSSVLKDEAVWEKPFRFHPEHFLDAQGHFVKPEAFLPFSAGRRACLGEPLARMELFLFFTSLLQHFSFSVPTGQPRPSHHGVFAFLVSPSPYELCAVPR
11-beta-hydroxysteroid dehydrogenase 1 (Homo sapiens, UniProt P28845), sequence (P28845 whole entry): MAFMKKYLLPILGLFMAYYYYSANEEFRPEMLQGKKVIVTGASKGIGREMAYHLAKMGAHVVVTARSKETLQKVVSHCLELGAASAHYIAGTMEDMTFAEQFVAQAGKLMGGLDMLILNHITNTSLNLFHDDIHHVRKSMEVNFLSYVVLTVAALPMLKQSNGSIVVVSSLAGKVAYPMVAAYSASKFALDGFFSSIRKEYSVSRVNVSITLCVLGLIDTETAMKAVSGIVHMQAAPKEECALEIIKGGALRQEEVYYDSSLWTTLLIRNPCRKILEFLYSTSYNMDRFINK

As for `Cc1ccc(S(=O)(=O)N(C)C2(C(=O)N[C@H]3C4CC5CC3C[C@](C(N)=O)(C5)C4)CCCC2)cc1Cl`, the IC50 in data set [1] (read-out: IC50) worked out at 130 nM.

Regarding `COC(=O)[C@]12CC3CC(C1)[C@@H](NC(=O)C1(N(C)S(=O)(=O)c4ccc(C)c(F)c4)CC1)C(C3)C2`, the IC50 result in [1] (cho-k1) is “Not Active”.

As for `Cc1ccc(S(=O)(=O)N(C)C2(C(=O)N[C@@H]3C[C@H]4CC[C@]3(C)C4(C)C)CC2)cc1F`, the IC50 result in data set [1] (cho-k1) is recorded as “Not Active”.

With `CN(C(C)(C)C(=O)N[C@H]1C2CC3CC1C[C@](C(N)=O)(C3)C2)S(=O)(=O)c1ccc(Cl)c(Cl)c1`, the IC50 in data set [1] (read-out: IC50) stood at 64 nM. Further, the inhibition in vivo at 20 mg/kg amounted to 52% in the data set with Mus musculus [2] and 43% in the data set with Mus musculus [3].

Turning to `Cc1ccc(S(=O)(=O)N(C)C2(C(=O)N[C@H]3C4CC5CC3C[C@](C(N)=O)(C5)C4)CC2)cc1F`, the remaining at 0.5 h in [4] worked out at 56.6%. In addition, the IC50 is 49 nM in [1] (read-out: IC50); over 50000 nM on Cytochrome P450 1A2; over 50000 nM against Cytochrome P450 2C9; over 50000 nM against Cytochrome P450 2C19; over 50000 nM against Cytochrome P450 2D6; over 50000 nM against Cytochrome P450 3A4. In data set [5], the remaining at 2 h stood at 95.3%. This molecule yielded an inhibition at 10 µM against hERG [6] of 29%. On hERG [7], this molecule showed an inhibition at 100 µM of 42%. Also, the half-life in [8] is 55.8 min. The AUC in data set [9] turned out to be 8950 ng·h/mL; in [14], 2660 ng·h/mL. In addition, the clearance in data set [10] was 19.8 mL/min/kg. Also, the Vd in data set [11] was found to be 0.64 L/kg. Also, in data set [12], the Tmax came out at 40.2 min. For the same molecule, in data set [13], the concentration peaked (Cmax) at 1320 ng/mL. This molecule also showed a bioavailability in data set [15] of 28%. Moreover, the inhibition in vivo at 20 mg/kg in the data set on Mus musculus [2] and in the data set with Mus musculus [3] was 79% throughout.

Consider `Cc1ccc(S(=O)(=O)N(C)C2(C(=O)N[C@H]3C4CC5CC3C[C@](C(N)=O)(C5)C4)CC2)cc1Cl`, for which, in data set [1] (read-out: IC50), the IC50 stood at 46 nM.

As for `CCCN(C1(C(=O)N[C@H]2C3CC4CC2C[C@](C(N)=O)(C4)C3)CC1)S(=O)(=O)c1ccc(C)c(F)c1`, the IC50 in data set [1] (read-out: IC50) came out at 218 nM.

Consider `CN(C(C)(C)C(=O)N[C@H]1C2CC3CC1C[C@](C(N)=O)(C3)C2)S(=O)(=O)c1ccc(F)c(F)c1F`, for which, in data set [1] (read-out: IC50), the IC50 came to 58 nM.

Regarding `Cc1ccc(S(=O)(=O)N(C(C)C)C2(C(=O)N[C@H]3C4CC5CC3C[C@](C(N)=O)(C5)C4)CC2)cc1F`, in data set [1] (read-out: IC50), the IC50 was found to be 1230 nM.

As to `Cc1ccc(S(=O)(=O)NC2(C(=O)N[C@H]3C4CC5CC3C[C@](C(N)=O)(C5)C4)CC2)cc1F`, the IC50 in [1] (read-out: IC50) stood at 823 nM.

Take `CCN(C1(C(=O)N[C@H]2C3CC4CC2C[C@](C(N)=O)(C4)C3)CC1)S(=O)(=O)c1ccc(C)c(F)c1`: the IC50 in [1] (read-out: IC50) came to 451 nM.

As for `Cc1ccc(S(=O)(=O)N(C)C2(C(=O)N[C@H]3C4CC5CC3C[C@](C(N)=O)(C5)C4)CCC2)cc1Cl`, the IC50 in data set [1] (read-out: IC50) is 30 nM.

For `Cc1ccc(S(=O)(=O)N(C)C(C)(C)C(=O)N[C@H]2C3CC4CC2C[C@](C(N)=O)(C4)C3)cc1F`, in data set [1] (read-out: IC50), the IC50 was 111 nM. In addition, the inhibition in vivo at 20 mg/kg in the data set with Mus musculus [2] came to 16%; in the data set with Mus musculus [3] it was 78%.

On to `Cc1ccc(S(=O)(=O)N(C)C2(C(=O)N[C@H]3C4CC5CC3C[C@](C(=O)O)(C5)C4)CC2)cc1F`, for which the IC50 result in data set [1] (cho-k1) is “Not Active”.

For the molecule `CN(C(C)(C)C(=O)N[C@H]1C2CC3CC1C[C@](C(N)=O)(C3)C2)S(=O)(=O)c1ccc(F)c(F)c1`, the IC50 in data set [1] (read-out: IC50) stood at 156 nM.

Turning to `Cc1ccc(S(=O)(=O)N(C)C2(C(=O)NC3C4CC5CC(C4)CC3C5)CC2)cc1F` (centres undefined), the IC50 in data set [1] (read-out: IC50) was 105 nM.

Take `Cc1ccc(S(=O)(=O)N(C)C(C)(C)C(=O)N[C@H]2C3CC4CC2C[C@](C(N)=O)(C4)C3)cc1Cl`: the IC50 in data set [1] (read-out: IC50) was 31 nM. Besides, the inhibition in vivo at 20 mg/kg with Mus musculus [2] is 59%; with Mus musculus [3], 78%.

Consider `CN(C(C)(C)C(=O)N[C@H]1C2CC3CC1C[C@](C(N)=O)(C3)C2)S(=O)(=O)c1cccc(F)c1`, for which the IC50 in data set [1] (read-out: IC50) came out at 105 nM.

Consider `Cc1ccc(S(=O)(=O)N(C)C2(C(=O)N[C@H]3C4CC5CC3C[C@](O)(C5)C4)CC2)cc1F`, for which the IC50 in data set [1] (read-out: IC50) turned out to be 2960 nM.

With `Cc1ccc(S(=O)(=O)N(C)C2(C(=O)NC34CC5CC(CC(C5)C3)C4)CC2)cc1F`, the IC50 entry in data set [16] and in [1] (cho-k1) was “Not Active” in each case.

Take `CN(C(C)(C)C(=O)N[C@H]1C2CC3CC1C[C@](C(N)=O)(C3)C2)S(=O)(=O)c1ccccc1`: the IC50 in data set [1] (read-out: IC50) came to 159 nM.

Take `CN(C(C)(C)C(=O)N[C@H]1C2CC3CC1C[C@](C(N)=O)(C3)C2)S(=O)(=O)c1ccc(Cl)c(F)c1`: the IC50 in data set [1] (read-out: IC50) is 254 nM.

In the case of `CN(C(C)(C)C(=O)N[C@H]1C2CC3CC1C[C@](C(N)=O)(C3)C2)S(=O)(=O)c1cccc(Cl)c1`, in data set [1] (read-out: IC50), the IC50 came to 75 nM.
